Measured values taken from PubChem BioAssay AID248 (DTP/NCI, 2004).
Values joined by “and” are separate entries in the source; they are usually repeats but may differ in a detail not shown here. Equal values may be shown once. Toxic doses and inconclusive results are not listed.

Tested on: L1210 leukemia ip in BDF1 mice, survival T/C
Assay: NCI In Vivo Anticancer Drug Screen. Data for tumor model L1210 Leukemia (intraperitoneal) in B6D2F1 (BDF1) mice
Settings: endpoint: mean survival time, higher = longer survival
How it was run: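 Read-out is survival time, reported as the treated-group measurement over the vehicle-control measurement.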

[1] = dose: 100.0 mg/kg/injection, schedule: Q04DX003 (ip), vehicle: acetone
[2] = dose: 200.0 mg/kg/injection, schedule: Q04DX003 (ip), vehicle: acetone
[3] = dose: 400.0 mg/kg/injection, schedule: Q04DX003 (ip), vehicle: acetone
[4] = dose: 100.0 mg/kg/injection, schedule: Q01DX009 (ip), vehicle: saline with Tween-80
[5] = dose: 200.0 mg/kg/injection, schedule: Q01DX009 (ip), vehicle: saline with Tween-80
[6] = dose: 100.0 mg/kg/injection, schedule: Q01DX009 (ip), vehicle: saline
[7] = dose: 50.0 mg/kg/injection, schedule: Q01DX001 (ip), vehicle: Klucel (hydroxypropylcellulose) (HPC)
[8] = dose: 100.0 mg/kg/injection, schedule: Q01DX001 (ip), vehicle: Klucel (hydroxypropylcellulose) (HPC)
[9] = dose: 200.0 mg/kg/injection, schedule: Q01DX001 (ip), vehicle: Klucel (hydroxypropylcellulose) (HPC)
[10] = dose: 5.0 mg/kg/injection, schedule: Q01DX001 (ip), vehicle: saline
[11] = dose: 10.0 mg/kg/injection, schedule: Q01DX001 (ip), vehicle: saline
[12] = dose: 20.0 mg/kg/injection, schedule: Q01DX001 (ip), vehicle: saline
[13] = dose: 40.0 mg/kg/injection, schedule: Q01DX001 (ip), vehicle: saline
[14] = dose: 100.0 mg/kg/injection, schedule: Q01DX009 (ip), vehicle: Klucel (hydroxypropylcellulose) (HPC)
[15] = dose: 100.0 mg/kg/injection, schedule: Q04DX003 (ip), vehicle: Klucel (hydroxypropylcellulose) (HPC)
[16] = dose: 200.0 mg/kg/injection, schedule: Q01DX009 (ip), vehicle: Klucel (hydroxypropylcellulose) (HPC)
[17] = dose: 200.0 mg/kg/injection, schedule: Q04DX003 (ip), vehicle: Klucel (hydroxypropylcellulose) (HPC)
[18] = dose: 400.0 mg/kg/injection, schedule: Q04DX003 (ip), vehicle: Klucel (hydroxypropylcellulose) (HPC)
[19] = dose: 50.0 mg/kg/injection, schedule: Q01DX001 (ip), vehicle: carboxymethylcellulose (CMC)
[20] = dose: 100.0 mg/kg/injection, schedule: Q01DX001 (ip), vehicle: carboxymethylcellulose (CMC)
[21] = dose: 200.0 mg/kg/injection, schedule: Q01DX001 (ip), vehicle: carboxymethylcellulose (CMC)
[22] = dose: 400.0 mg/kg/injection, schedule: Q01DX001 (ip), vehicle: carboxymethylcellulose (CMC)
[23] = dose: 100.0 mg/kg/injection, schedule: Q04DX002 (ip), vehicle: saline with Tween-80
[24] = dose: 200.0 mg/kg/injection, schedule: Q04DX002 (ip), vehicle: saline with Tween-80
[25] = dose: 400.0 mg/kg/injection, schedule: Q04DX002 (ip), vehicle: saline with Tween-80
[26] = dose: 100.0 mg/kg/injection, schedule: Q01DX001 (ip), vehicle: saline with Tween-80

O=S(=O)(c1ccccc1)N1CCOC1=S
T/C [1]: 93 % of control | T/C [2]: 101 % of control | T/C [3]: 93 % of control

O=C(NCCBr)c1ccc(N=Nc2ccccc2)cc1
T/C (dose: 20.0 mg/kg/injection, schedule: Q01DX009 (ip), vehicle: Klucel (hydroxypropylcellulose) (HPC)): 95 % of control | T/C (dose: 20.0 mg/kg/injection, schedule: Q04DX003 (ip), vehicle: Klucel (hydroxypropylcellulose) (HPC)): 103 % of control | T/C (dose: 40.0 mg/kg/injection, schedule: Q01DX009 (ip), vehicle: Klucel (hydroxypropylcellulose) (HPC)): 95 % of control | T/C (dose: 40.0 mg/kg/injection, schedule: Q04DX003 (ip), vehicle: Klucel (hydroxypropylcellulose) (HPC)): 103 % of control | T/C (dose: 80.0 mg/kg/injection, schedule: Q01DX009 (ip), vehicle: Klucel (hydroxypropylcellulose) (HPC)): 91 % of control | T/C (dose: 80.0 mg/kg/injection, schedule: Q04DX003 (ip), vehicle: Klucel (hydroxypropylcellulose) (HPC)): 105 % of control

CC(=O)Nc1ccc(N=CN(C)C)cc1
T/C [4]: 94 % of control | T/C [5]: 101 % of control

NCCc1ccc2c(c1)OCO2
T/C (dose: 25.0 mg/kg/injection, schedule: Q01DX009 (ip), vehicle: saline): 109 % of control | T/C (dose: 50.0 mg/kg/injection, schedule: Q01DX009 (ip), vehicle: saline): 107 % of control | T/C [6]: 100 % of control and 107 % of control | T/C (dose: 100.0 mg/kg/injection, schedule: Q04DX003 (ip), vehicle: saline): 97 % of control | T/C (dose: 200.0 mg/kg/injection, schedule: Q04DX003 (ip), vehicle: saline): 102 % of control

COC(=O)/C=C(/Nc1cccc2ccccc12)C(=O)OC
T/C [7]: 102 % of control | T/C [8]: 96 % of control | T/C [9]: 114 % of control

C=CCNC(=S)Nc1cccc(C(C)O)c1 (stereo unspecified)
T/C [6]: 107 % of control | T/C (dose: 100.0 mg/kg/injection, schedule: Q04DX002 (ip), vehicle: saline): 89 % of control | T/C (dose: 200.0 mg/kg/injection, schedule: Q01DX009 (ip), vehicle: saline): 112 % of control | T/C (dose: 200.0 mg/kg/injection, schedule: Q04DX002 (ip), vehicle: saline): 89 % of control | T/C (dose: 400.0 mg/kg/injection, schedule: Q04DX002 (ip), vehicle: saline): 96 % of control

N#CSCC(=O)OC1CCCCC1
T/C [10]: 98 % of control | T/C [11]: 96 % of control | T/C [12]: 96 % of control | T/C [13]: 93 % of control

OCCNc1nc2cc(Cl)ccc2c2ccc(Cl)cc12
T/C [14]: 91 % of control | T/C [15]: 96 % of control | T/C [16]: 99 % of control | T/C [17]: 93 % of control | T/C [18]: 96 % of control

COc1cc2ccc3c4cc5c(cc4c[n+](C)c3c2cc1OC)OCO5
T/C (dose: 10.0 mg/kg/injection, schedule: Q01DX009 (ip), vehicle: saline): 124 % of control | T/C (dose: 20.0 mg/kg/injection, schedule: Q01DX009 (ip), vehicle: saline): 112 % of control | T/C (dose: 40.0 mg/kg/injection, schedule: Q01DX009 (ip), vehicle: saline): 122 % of control

CC1(C)N=C(N)N=C(N)N1c1cccc(OCCCOc2cccc([N+](=O)[O-])c2)c1
T/C [10]: 100 % of control | T/C [11]: 97 % of control | T/C [12]: 97 % of control | T/C [13]: 100 % of control | T/C (dose: 80.0 mg/kg/injection, schedule: Q01DX001 (ip), vehicle: saline): 95 % of control

O=CNNc1ccc([N+](=O)[O-])cc1
T/C (dose: 50.0 mg/kg/injection, schedule: Q01DX009 (ip), vehicle: Klucel (hydroxypropylcellulose) (HPC)): 97 % of control | T/C [14]: 100 % of control | T/C [15]: 94 % of control | T/C [16]: 86 % of control | T/C [17]: 94 % of control | T/C [18]: 94 % of control

CN=C(N)c1ccc(NC(=O)/C=C\c2ccc(/C=C/C(=O)Nc3ccc(C(N)=NC)cc3)cc2)cc1
T/C (dose: 15.0 mg/kg/injection, schedule: Q01DX Z (ip), vehicle: saline): 121 % of control | T/C (dose: 60.0 mg/kg/injection, schedule: Q01DX Z (oral), vehicle: saline): 100 % of control | T/C (dose: 120.0 mg/kg/injection, schedule: Q01DX Z (ip), vehicle: saline): 179 % of control | T/C (dose: 120.0 mg/kg/injection, schedule: Q01DX Z (oral), vehicle: saline): 100 % of control | T/C (dose: 240.0 mg/kg/injection, schedule: Q01DX Z (oral), vehicle: saline): 101 % of control | T/C (dose: 480.0 mg/kg/injection, schedule: Q01DX Z (oral), vehicle: saline): 95 % of control

CCCCC(=O)NC1CCCCC1
T/C (dose: 75.0 mg/kg/injection, schedule: Q01DX001 (ip), vehicle: saline): 101 % of control | T/C (dose: 150.0 mg/kg/injection, schedule: Q01DX001 (ip), vehicle: saline): 95 % of control

CC1(C)CC2C(=O)c3ccccc3NC2c2ccccc21 (stereo unspecified)
T/C [19]: 96 % of control | T/C [20]: 102 % of control | T/C [1]: 91 % of control | T/C [21]: 98 % of control | T/C [2]: 86 % of control | T/C [22]: 98 % of control | T/C [3]: 93 % of control

Cc1ccc(S(=O)(=O)OC2COCOC2C2(OS(=O)(=O)c3ccc(C)cc3)COCOC2)cc1 (stereo unspecified)
T/C (dose: 100.0 mg/kg/injection, schedule: Q04DX002 (ip), vehicle: Klucel (hydroxypropylcellulose) (HPC)): 101 % of control | T/C (dose: 200.0 mg/kg/injection, schedule: Q04DX002 (ip), vehicle: Klucel (hydroxypropylcellulose) (HPC)): 101 % of control | T/C (dose: 400.0 mg/kg/injection, schedule: Q04DX002 (ip), vehicle: Klucel (hydroxypropylcellulose) (HPC)): 104 % of control

CCCCNC(=S)SCCC(=O)O
T/C [23]: 100 % of control | T/C [24]: 104 % of control | T/C [25]: 102 % of control

Cc1ccc(N2C=C(c3ccccc3)CC2=O)cc1
T/C [23]: 107 % of control | T/C [24]: 100 % of control | T/C [25]: 104 % of control

Nc1nc2[nH]ncc2c(=O)[nH]1
T/C [19]: 104 % of control | T/C [20]: 107 % of control | T/C [21]: 93 % of control | T/C [22]: 96 % of control

CCCSP(C(C)C)C(C)C
T/C (dose: 12.5 mg/kg/injection, schedule: Q04DX003 (ip), vehicle: saline with Tween-80): 94 % of control | T/C (dose: 25.0 mg/kg/injection, schedule: Q04DX003 (ip), vehicle: saline with Tween-80): 94 % of control | T/C (dose: 50.0 mg/kg/injection, schedule: Q04DX003 (ip), vehicle: saline with Tween-80): 91 % of control

Nc1ccc(CCCC(=O)NCc2cccnc2)cc1
T/C [4]: 105 % of control | T/C [5]: 94 % of control | T/C (dose: 400.0 mg/kg/injection, schedule: Q01DX009 (ip), vehicle: saline with Tween-80): 96 % of control

CC(=O)Nc1c(Cl)cc(Cl)cc1Cl
T/C [26]: 109 % of control | T/C (dose: 200.0 mg/kg/injection, schedule: Q01DX001 (ip), vehicle: saline with Tween-80): 93 % of control | T/C (dose: 400.0 mg/kg/injection, schedule: Q01DX001 (ip), vehicle: saline with Tween-80): 95 % of control

Cc1ccnc(NS(=O)(=O)c2ccc(N=Nc3c(N)nc(N)[nH]c3=O)cc2)n1
T/C [20]: 103 % of control | T/C [21]: 97 % of control | T/C [22]: 103 % of control

CC[C@@H]1C[C@H]2CC3c4[nH]c5ccc(OC)cc5c4CCN(C2)C31
T/C (dose: 25.0 mg/kg/injection, schedule: Q01DX001 (ip), vehicle: saline with Tween-80): 96 % of control | T/C (dose: 50.0 mg/kg/injection, schedule: Q01DX001 (ip), vehicle: saline with Tween-80): 96 % of control | T/C [26]: 93 % of control and 109 % of control

Oc1ccc(Br)cc1C=Nc1cccc(C(F)(F)F)c1
T/C [23]: 102 % of control | T/C [24]: 100 % of control | T/C [25]: 96 % of control

Cc1cccc([N+](=O)[O-])c1-c1c(C)cccc1[N+](=O)[O-]
T/C [7]: 102 % of control | T/C [8]: 102 % of control | T/C [9]: 96 % of control
